The text below walks through data of ChEMBL document CHEMBL1201862, “PubChem BioAssay data set” (2004).

Among the test systems are HT-29; MDA-MB-435; M14; SF-268; SK-MEL-2; SW-620; CAKI-1; SK-MEL-5; COLO 205; TK-10; K562; MOLT-4; KM12; RPMI-8226; SK-OV-3; U-251; IGROV-1; PC-3; RXF 393.
Assay in all cases: DTP human tumour cell line panel, 48 h

SMILES strings stand for the structures.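 Interpolation was linear, between the two tested concentrations surrounding the appropriate level; five concentrations were tested over 48 hours in 96-well plates. GI50 is the concentration that inhibits growth by half.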 Activity calls are given as the source filed them. Rule as the data show it: active = GI50 up to about 1.1 µM and inactive = higher.

For `NC(=O)NC(=O)Nc1ccc(Br)cc1`, the GI50 (in general, the concentration that inhibits growth by half) was 3.46 µM (inactive) with HT-29; 9.57 µM (inactive) with MDA-MB-435; 18.5 µM (inactive) in the assay on M14; > 6.93 µM (inactive) with SF-268; 13.2 µM (inactive) with SK-MEL-2; > 11.5 µM (inactive) with SW-620. Moreover, the GI50 in the assay with CAKI-1 is > 9.38 µM (inactive); in the assay on SK-MEL-5, 7.67 µM (inactive); with COLO 205, 11.3 µM (inactive); in the assay with TK-10, > 35.9 µM (inactive); with K562 it was 3.3 µM (inactive); in the assay with MOLT-4 it was 3.78 µM (inactive). Also, the GI50 with KM12 is 21.8 µM (inactive); with RPMI-8226, 10.3 µM (inactive); in the assay with SK-OV-3 it was > 100 µM (inactive); with U-251 it was 11.7 µM (inactive); with IGROV-1, 16.7 µM (inactive); with PC-3, 23.9 µM (inactive).

As for `CO[P@@]1(=O)O[C@@H](c2ccccc2)[C@H](O)[C@@]1(O)c1ccccc1`, the GI50 in the assay with HT-29 is 45.6 µM (inactive); in the assay with MDA-MB-435, > 100 µM (inactive); with M14, > 100 µM (inactive); in the assay with SF-268, > 100 µM (inactive); with SK-MEL-2, > 100 µM (inactive); in the assay with SW-620, > 100 µM (inactive). Also, the GI50 is > 100 µM (inactive) in the assay on CAKI-1; > 100 µM (inactive) with SK-MEL-5; > 100 µM (inactive) with COLO 205; > 100 µM (inactive) in the assay with TK-10; > 100 µM (inactive) in the assay with K562; 22.8 µM (inactive) in the assay on MOLT-4. Also, the GI50 with KM12, in the assay with SK-OV-3, with U-251, with IGROV-1, in the assay with PC-3 and in the assay with RXF 393 was > 100 µM (inactive) throughout.

Take `CCOC(=O)N1c2ccccc2S(=O)(=O)c2ccccc21`: the GI50 in the assay on HT-29, in the assay on MDA-MB-435, in the assay with M14, in the assay on SF-268, in the assay with SK-MEL-2 and in the assay with SW-620 was > 100 µM (inactive) each time. Further, the GI50 with CAKI-1, in the assay on SK-MEL-5, with COLO 205, with TK-10, in the assay with K562 and with MOLT-4 was > 100 µM (inactive) throughout. Besides, the GI50 in the assay on KM12, in the assay on SK-OV-3, with U-251, in the assay with IGROV-1, in the assay on PC-3 and in the assay on RXF 393 was > 100 µM (inactive) throughout.

In the case of `CCc1n[nH]c(=O)n1NC(=O)c1ccccc1C(=O)O`, the GI50 in the assay on HT-29, in the assay with MDA-MB-435, in the assay with M14, with SF-268, with SK-MEL-2 and in the assay on SW-620 was > 100 µM (inactive) each time. The GI50 in the assay with SK-MEL-5, in the assay on COLO 205, in the assay on TK-10, with K562, in the assay with MOLT-4 and in the assay with KM12 was > 100 µM (inactive) each time. Also, the GI50 in the assay with RPMI-8226, in the assay on SK-OV-3, with U-251, in the assay on IGROV-1, with PC-3 and with RXF 393 was > 100 µM (inactive) each time.

For the compound `CC(C)CC1NC(=O)C(C(C)C)NC(=O)CC(C)COC(=O)C(CC(C)C)N(C)C(=O)C(C(C)C)NC(=O)C(C(C)C)OC1=O` (stereo not given), the GI50 in the assay on HT-29 is > 50 µM (inactive); with MDA-MB-435 it was > 50 µM (inactive); in the assay on M14, 38.5 µM (inactive); in the assay on SF-268, > 50 µM (inactive); in the assay with SK-MEL-2, 18.2 µM (inactive); in the assay with SW-620 it was > 50 µM (inactive). Further, the GI50 was 48.9 µM (inactive) in the assay on CAKI-1; > 50 µM (inactive) in the assay with SK-MEL-5; > 50 µM (inactive) in the assay with COLO 205; > 50 µM (inactive) with K562; > 50 µM (inactive) in the assay on MOLT-4; > 50 µM (inactive) with KM12. Moreover, the GI50 with SK-OV-3 is 29.1 µM (inactive); in the assay with U-251, 31.2 µM (inactive); with IGROV-1, > 50 µM (inactive); with PC-3, > 50 µM (inactive); in the assay with RXF 393 it was 16.1 µM (inactive).

In the case of `CC(C)(Cl)C(Br)CCC(C)(Cl)C(Br)CBr` (stereo not given), the GI50 in the assay on HT-29 was 19.5 µM (inactive); in the assay on MDA-MB-435, 26.7 µM (inactive); with M14, 34.5 µM (inactive); in the assay with SF-268 it was 37.2 µM (inactive); in the assay on SK-MEL-2, 18.1 µM (inactive); in the assay with SW-620, 27.5 µM (inactive). Also, the GI50 with SK-MEL-5 is 18.2 µM (inactive); in the assay with COLO 205 it was 18.5 µM (inactive); with TK-10, 35.4 µM (inactive); in the assay on K562 it was 22.5 µM (inactive); with MOLT-4, 41.2 µM (inactive); in the assay on RPMI-8226, 18.1 µM (inactive). For the same compound, the GI50 with SK-OV-3 is 39.2 µM (inactive); with U-251, 24.1 µM (inactive); in the assay on IGROV-1 it was 23.3 µM (inactive); in the assay with PC-3, 27.2 µM (inactive); in the assay on RXF 393, 32.7 µM (inactive).

On to `O=C(Nc1ccc(Cl)cc1)C(=O)C1=C(O)c2ccccc2OC1`, for which the GI50 with HT-29, in the assay on MDA-MB-435, in the assay with M14, in the assay with SF-268, in the assay on SK-MEL-2 and in the assay with SW-620 was > 100 µM (inactive) in each case. The GI50 with CAKI-1, in the assay on SK-MEL-5, in the assay with COLO 205, in the assay with TK-10, in the assay with K562 and in the assay on MOLT-4 was > 100 µM (inactive) throughout. Also, the GI50 in the assay with KM12 is 80.5 µM (inactive); in the assay with RPMI-8226 it was > 100 µM (inactive); in the assay with SK-OV-3 it was > 100 µM (inactive); with U-251 it was > 100 µM (inactive); with IGROV-1 it was > 100 µM (inactive); in the assay on PC-3, > 100 µM (inactive).

Turning to `O=C(c1ccccc1)N1CCN(C(=S)N(C(=O)c2ccccc2)c2ccccc2)C1=S`, the GI50 in the assay on HT-29 was 5.42 µM (inactive); with MDA-MB-435 it was 3.84 µM (inactive); in the assay on M14, 3.17 µM (inactive); in the assay on SF-268 it was 3.45 µM (inactive); in the assay on SK-MEL-2, 7.41 µM (inactive); in the assay on SW-620, 3.31 µM (inactive). Moreover, the GI50 in the assay with CAKI-1 is 2.47 µM (inactive); in the assay with SK-MEL-5, 13.5 µM (inactive); in the assay on COLO 205 it was 3.28 µM (inactive); in the assay with TK-10, 5.83 µM (inactive); with K562, 2.41 µM (inactive); in the assay on MOLT-4 it was 1.89 µM (inactive). Moreover, the GI50 is 5.71 µM (inactive) in the assay with KM12; 0.914 µM (active) in the assay on RPMI-8226; 15.5 µM (inactive) in the assay with SK-OV-3; 6.79 µM (inactive) with U-251; 3.52 µM (inactive) in the assay on IGROV-1; 6.59 µM (inactive) in the assay on PC-3.

`CC1=CC(=O)/C(=C/NC(=S)NCc2ccccc2)C(=O)O1`: the GI50 with HT-29, with MDA-MB-435, in the assay with M14, in the assay with SF-268, in the assay with SK-MEL-2 and in the assay with SW-620 was > 100 µM (inactive) in each case. For the same compound, the GI50 was > 100 µM (inactive) in the assay with CAKI-1; > 100 µM (inactive) with SK-MEL-5; > 100 µM (inactive) with COLO 205; > 100 µM (inactive) in the assay on TK-10; 52.2 µM (inactive) with MOLT-4; > 100 µM (inactive) in the assay on KM12. Moreover, the GI50 with SK-OV-3, with U-251, in the assay with IGROV-1, in the assay with PC-3 and in the assay on RXF 393 was > 100 µM (inactive) throughout.

Take `CC1(N2CCOCC2)CC2C(=[N+]1[O-])CCC/C2=N/O` (stereo not given): the GI50 with HT-29, in the assay on MDA-MB-435, in the assay with M14, with SF-268, with SK-MEL-2 and in the assay on SW-620 was > 100 µM (inactive) in each case. In addition, the GI50 with CAKI-1, in the assay on SK-MEL-5, in the assay with TK-10, with K562, with MOLT-4 and in the assay with KM12 was > 100 µM (inactive) each time. For the same compound, the GI50 with SK-OV-3, in the assay on U-251, in the assay on IGROV-1, with PC-3 and with RXF 393 was > 100 µM (inactive) in each case.

Regarding `O=C(OC1C#CCSCC#C/C=C\1)c1cnc2ccccc2n1` (stereo not given), the GI50 in the assay on HT-29, in the assay on MDA-MB-435, with M14, in the assay on SF-268, with SK-MEL-2 and in the assay with SW-620 was > 100 µM (inactive) throughout. Also, the GI50 in the assay with COLO 205 was 14.6 µM (inactive); with TK-10 it was > 100 µM (inactive); in the assay with K562 it was 19.7 µM (inactive); with SK-OV-3 it was > 100 µM (inactive); with U-251 it was > 100 µM (inactive); with IGROV-1, > 100 µM (inactive). Besides, the figures for the GI50 in the assay on PC-3 and in the assay on RXF 393 were > 100 µM (inactive) and 79.8 µM (inactive), respectively.
